# From ChEMBL document CHEMBL1128154, “16,19-cis-murisolin and murisolin a, two novel bioactive mono-tetrahydrofuran annonaceous acetogenins from Asimina triloba seeds” (Bioorg Med Chem Lett, 1995)
# Legend:
# MIA PaCa-2 = assay: Cytotoxicity against human pancreatic carcinoma MIA PaCa-2 cell lines; type: functional; conditions: read-out: ED50 (the source's name)
# MCF7 = assay: Cytotoxicity against human breast carcinoma MCF-7 cell lines; type: functional; conditions: read-out: ED50 (the source's name)
# [1] = Lethality in Brine shrimp lethality test; conditions: artemia
# PC-3 = assay: Cytotoxicity against human prostate adenocarcinoma PC-3 cell lines; type: functional; conditions: read-out: ED50 (the source's name)
# A498 = assay: Cytotoxicity against human kidney carcinoma A-498cell lines; type: functional; conditions: read-out: ED50 (the source's name)
# A549 = assay: Cytotoxicity against human lung carcinoma A-549 cell lines; type: functional; conditions: read-out: ED50 (the source's name)
# HT-29 = assay: Cytotoxicity against human colon adenocarcinoma HT-29 cell lines; type: functional; conditions: read-out: ED50 (the source's name)
Compound,EC50 (MIA PaCa-2),EC50 (MCF7),LC50 [1],EC50 (PC-3),EC50 (A498),EC50 (A549),EC50 (HT-29)
"CCCCCCCCCCCCC(O)[C@@H]1CC[C@H]([C@H](O)CCCCCCCCCCC(O)CC2=C[C@H](C)OC2=O)O1 (single isomer, unassigned)",1.5 ng/mL,3150 ng/mL,207 ng/mL,2360 ng/mL,,,
"CCCCCCCCCCCCC(O)[C@H]1CC[C@H]([C@H](O)CCCCCCCCCCC(O)CC2=C[C@H](C)OC2=O)O1 (single isomer, unassigned)",51.8 ng/mL,5400 ng/mL,183 ng/mL,8410 ng/mL,66.7 ng/mL,0.00316 ng/mL,
"CCCCCCCCCCCCC(O)C1CC[C@H]([C@H](O)CCCCCCCCCCC(O)CC2=C[C@H](C)OC2=O)O1 (single isomer, unassigned)",15.3 ng/mL,15.8 ng/mL,346 ng/mL,1420 ng/mL,4160 ng/mL,3.41 ng/mL,1270 ng/mL
COc1cccc2c1C(=O)c1c(O)c3c(c(O)c1C2=O)C[C@@](O)(C(=O)CO)C[C@@H]3O[C@H]1C[C@H](N)[C@H](O)[C@H](C)O1 [DOXORUBICIN],1.36 ng/mL,420 ng/mL,,34.9 ng/mL,2.26 ng/mL,3.99 ng/mL,24.3 ng/mL
